# Measured values from US10508120B2, “TYK2 inhibitors and uses thereof” (Nimbus Lakshmi, Inc., priority 2017, dated 2019).
# Where two headings read alike, the source gives them in different places.
# Assays:
# Tyk2 kinase domain (DH1) = Tyk2 kinase domain (DH1) (Homo sapiens (Human), UniProt P29597); experiment: Tyk2 Radioactive Kinase Assay; assay type: biochemical; conditions: for inhibition at 10 µM: read-out: Tyk2 JH1% Inhibition @ 10 μM
# Method in brief: (§1)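 Compounds were tested at a single concentration of 10 μM in a radiometric kinase format against each isolated kinase domain. Activity is reported as percent inhibition at that concentration.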
# [1] = molecular target: human TYK2 (JH2domain-pseudokinase) (Homo sapiens (Human), UniProt P29597); experiment: TYK2 JH2 Domain Binding Assay (KINOMEscan)
# Method in brief: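 The construct was human TYK2 G556–D888 fused to the NFkB DNA-binding domain and expressed in HEK293 cells; unpurified extract was incubated with compound and liganded beads for 1 hour at room temperature.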
# JAK2 kinase domain (JH1) = JAK2 kinase domain (JH1) (Homo sapiens (Human), UniProt O60674); experiment: JAK2 Radioactive Kinase Assay; assay type: biochemical; conditions: for inhibition at 10 µM: read-out: JAK2 JH1% Inhibition @ 10 μM
# Method in brief: as §1
# Tyk2 kinase domain (DH1), sequence (P29597 897-1176): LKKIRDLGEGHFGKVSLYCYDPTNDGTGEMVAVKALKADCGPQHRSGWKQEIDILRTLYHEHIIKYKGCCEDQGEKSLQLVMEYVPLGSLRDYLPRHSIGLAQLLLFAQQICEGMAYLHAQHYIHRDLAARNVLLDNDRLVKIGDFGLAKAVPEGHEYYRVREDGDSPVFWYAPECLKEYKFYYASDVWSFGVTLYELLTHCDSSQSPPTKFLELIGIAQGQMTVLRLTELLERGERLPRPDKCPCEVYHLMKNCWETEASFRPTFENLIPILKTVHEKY
# human TYK2 (JH2domain-pseudokinase), sequence (P29597 556-888): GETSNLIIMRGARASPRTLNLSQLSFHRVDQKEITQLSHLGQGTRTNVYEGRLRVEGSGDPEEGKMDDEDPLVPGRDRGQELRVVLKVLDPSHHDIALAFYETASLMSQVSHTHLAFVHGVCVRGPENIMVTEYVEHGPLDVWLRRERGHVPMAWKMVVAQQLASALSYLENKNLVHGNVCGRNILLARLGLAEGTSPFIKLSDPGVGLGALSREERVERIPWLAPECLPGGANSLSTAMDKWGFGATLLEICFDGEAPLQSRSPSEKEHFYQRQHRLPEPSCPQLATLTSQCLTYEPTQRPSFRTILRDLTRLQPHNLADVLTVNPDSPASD
# JAK2 kinase domain (JH1), sequence (O60674 849-1124): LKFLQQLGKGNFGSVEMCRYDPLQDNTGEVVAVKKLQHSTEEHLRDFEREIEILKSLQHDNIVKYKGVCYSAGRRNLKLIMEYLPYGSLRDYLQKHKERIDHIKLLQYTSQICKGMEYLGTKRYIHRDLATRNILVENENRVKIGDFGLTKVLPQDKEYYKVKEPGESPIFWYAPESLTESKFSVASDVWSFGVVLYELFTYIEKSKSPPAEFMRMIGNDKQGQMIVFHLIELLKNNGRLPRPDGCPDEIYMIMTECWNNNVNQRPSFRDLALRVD
SMILES,"inhibition at 10 µM (Tyk2 kinase domain (DH1); 10 μM compound, 10 μM ATP) [%]",Kd [1] [nM],"inhibition at 10 µM (JAK2 kinase domain (JH1); 10 μM compound, 10 μM ATP) [%]","inhibition at 10 µM (Tyk2 kinase domain (DH1); compound at 10 μM, ATP 10 μM) [%]","inhibition at 10 µM (JAK2 kinase domain (JH1); compound at 10 μM, ATP 10 μM) [%]","Tyk2 JH1% Inhibition @ 10 μM (Tyk2 kinase domain (DH1); compound at 10 μM, ATP 10 μM)","JAK2 JH1% Inhibition @ 10 μM (JAK2 kinase domain (JH1); compound at 10 μM, ATP 10 μM)"
CNc1cc(Nc2cccn(C3CCN(CCF)CC3)c2=O)nc2c(C(=O)N[C@H]3CC[C@H]3O)cnn12 [I-844],< 50,< 0.2,< 50,–,–,–,–
CO[C@H]1C[C@@H](Oc2ncc(Cl)cc2Nc2cc(N)n3ncc(C(N)=O)c3n2)C1 [I-97],–,1 to 10,–,< 50,< 50,–,–
CNc1cc(Nc2cccnc2O[C@H]2CC[C@H](OC)CC2)nc2c(C(=O)NC3CCC3)cnn12 [I-248],–,0.2 to 1,–,< 50,< 50,–,–
CNc1cc(Nc2cccc(N3CC4(CCO4)C3)n2)nc2c(C(=O)N[C@H]3C[C@H]3F)cnn12 [I-619],–,< 0.2,–,< 50,< 50,–,–
CNc1cc(Nc2ccc3c(n2)CCO3)nc2c(C(=O)NC3CC3)cnn12 [I-631],–,0.2 to 1,–,< 50,< 50,–,–
CNc1cc(Nc2cccn(-c3ccc(C(=O)N4CCC4)cn3)c2=O)nc2c(C(=O)N[C@H]3C[C@H]3F)cnn12 [I-142],–,< 0.2,–,< 50,< 50,–,–
CNc1cc(-n2cc(N3CCOCC3)c3ncccc32)nc2c(C(=O)NC3CC3)cnn12 [I-554],–,1 to 10,–,< 50,< 50,–,–
"CNc1cc(Nc2cccc(C3CCCCO3)n2)nc2c(C(=O)NC3CC3)cnn12 (stereo not drawn) [I-432, N-cyclopropyl-7-(methylamino)-5-((6-(tetrahydro-2H-pyran-2-yl)pyridin-2-yl)amino)pyrazolo[1,5-a]pyrimidine-3-carboxamide]",–,< 0.2,–,< 50,< 50,–,–
CNc1cc(Nc2cccn(C3CCN(CC(F)F)CC3)c2=O)nc2c(C(N)=O)cnn12 [I-67],–,< 0.2,–,< 50,< 50,–,–
CNc1cc(Nc2c(F)ccn(-c3nccs3)c2=O)nc2c(C(=O)N[C@H]3C[C@H]3F)cnn12 [I-624],–,0.2 to 1,–,70 to 90,< 50,–,–
CNc1cc(Nc2cccn([C@@H]3CCC[C@H](OC)C3)c2=O)nc2c(C(=O)N[C@@H]3CC[C@H]3O)cnn12 [I-1054],< 50,< 0.2,< 50,–,–,–,–
CNc1cc(Nc2cccn(-c3cccc(F)c3)c2=O)nc2c(C(=O)NCC(C)CO)cnn12 (stereo not drawn) [I-947],< 50,< 0.2,< 50,–,–,–,–
CNc1cc(Nc2cccn(-c3ccnn3C)c2=O)nc2c(C(=O)NC3CCC3)cnn12 [I-328],–,< 0.2,–,< 50,< 50,–,–
CNc1cc(Nc2cccn([C@@H]3CCC[C@@H](O)C3)c2=O)nc2c(C(=O)NC3CC3)cnn12 [I-822],< 50,< 0.2,< 50,–,–,–,–
CNc1cc(-c2cn(CCN3CCCCC3)c3ncccc23)nc2c(C(=O)N[C@H]3CC[C@@H]3O)cnn12 [I-838],< 50,< 0.2,< 50,–,–,–,–
NC(=O)c1cnn2c(N)cc(Nc3cccn(-c4ccon4)c3=O)nc12 [I-57],–,0.2 to 1,–,< 50,< 50,–,–
CNc1cc(Nc2cccn([C@H]3CC[C@H](O)CC3)c2=O)nc2c(C(N)=O)cnn12 [I-59],–,< 0.2,–,< 50,< 50,–,–
CNc1cc(Nc2cccn([C@@H]3CCC[C@H](OC)C3)c2=O)nc2c(C(=O)N[C@H]3CC[C@@H]3OC)cnn12 [I-1083],< 50,1 to 10,< 50,–,–,–,–
CNc1cc(Nc2cccn([C@H]3CCC[C@@H](OC)C3)c2=O)nc2c(C(=O)NCC3(CO)CC3)cnn12 (racemic) [I-862],< 50,0.2 to 1,< 50,–,–,–,–
"CNc1cc(Nc2cc(Cl)cnc2OC2CCC2)nc2c(C(=O)NC3COC3)cnn12 [I-93, 5-((5-chloro-2-cyclobutoxypyridin-3-yl)amino)-7-(methylamino)-N-(oxetan-3-yl)pyrazolo[1,5-a]pyrimidine-3-carboxamide]",–,> 10,–,< 50,< 50,–,–
CNc1cc(-c2cn(C3CCOCC3)c3ncccc23)nc2c(C(=O)N[C@@H]3CC[C@@H]3O)cnn12 [I-1114],< 50,0.2 to 1,< 50,–,–,–,–
CNc1cc(Nc2cccn(C3CCCN(CCC#N)C3)c2=O)nc2c(C(=O)N[C@@H]3C[C@@H]3F)cnn12 (stereo partly drawn) [I-912],< 50,0.2 to 1,< 50,–,–,–,–

# More lines, main results first:
"inhibition at 10 µM (Tyk2 kinase domain (DH1); 10 μM compound, 10 μM ATP) [%]",Kd [1] [nM],"inhibition at 10 µM (JAK2 kinase domain (JH1); 10 μM compound, 10 μM ATP) [%]","inhibition at 10 µM (Tyk2 kinase domain (DH1); compound at 10 μM, ATP 10 μM) [%]","inhibition at 10 µM (JAK2 kinase domain (JH1); compound at 10 μM, ATP 10 μM) [%]",SMILES,"Tyk2 JH1% Inhibition @ 10 μM (Tyk2 kinase domain (DH1); compound at 10 μM, ATP 10 μM)","JAK2 JH1% Inhibition @ 10 μM (JAK2 kinase domain (JH1); compound at 10 μM, ATP 10 μM)"
–,< 0.2,–,< 50,< 50,CNc1cc(Nc2cccn(-c3cncc(C)c3)c2=O)nc2c(C(=O)N[C@H]3C[C@H]3F)cnn12 [I-302],–,–
–,1 to 10,–,< 50,< 50,CO[C@@H]1CCN(c2cc(Nc3cc(N)n4ncc(C(N)=O)c4n3)cc(C)n2)C1 [I-30],–,–
–,> 10,–,< 50,< 50,Cc1cc(Nc2cc(N)n3ncc(C(N)=O)c3n2)cc(N2CC[C@@H](O)C2)n1 [I-56],–,–
–,0.2 to 1,–,< 50,< 50,CNc1cc(Nc2cc(Cl)cnc2OC2CCC2)nc2c(C(N)=O)cnn12 [I-80],–,–
–,1 to 10,–,< 50,< 50,Cc1cc(Nc2cc(N)n3ncc(C(N)=O)c3n2)c(=O)n(-c2ccnn2C)c1 [I-99],–,–
–,< 0.2,–,< 50,< 50,CNc1cc(Nc2cc(F)cn(C3CCN(C)CC3)c2=O)nc2c(C(=O)N[C@H]3C[C@H]3F)cnn12 [I-626],–,–
–,0.2 to 1,–,< 50,< 50,CNc1cc(Nc2cccnc2C(C)(C)O)nc2c(C(=O)N[C@H]3C[C@H]3F)cnn12 [I-307],–,–
–,< 0.2,–,–,–,CNc1cc(Nc2cccn([C@H]3CCCOC3)c2=O)nc2c(C(=O)N[C@H]3CC[C@H](O)C3)cnn12 [I-728],A (percent inhibition at 10 μM lower than 50),A (percent inhibition at 10 μM lower than 50)
–,0.2 to 1,–,< 50,< 50,CNc1cc(Nc2cccn(C3CCOC3)c2=O)nc2c(C(N)=O)cnn12 (stereo not drawn) [I-108],–,–
–,0.2 to 1,–,< 50,< 50,"COc1ncccc1Nc1cc(NCCCN2CCOCC2)n2ncc(C(=O)NC3CC3)c2n1 [I-376, N-cyclopropyl-5-((2-methoxypyridin-3-yl)amino)-7-((3-morpholinopropyl)amino)pyrazolo[1,5-a]pyrimidine-3-carboxamide]",–,–
–,< 0.2,–,< 50,< 50,CNc1cc(Nc2cccc([C@@H]3CCCCO3)n2)nc2c(C(=O)NCC3(CO)CC3)cnn12 [I-565],–,–
–,1 to 10,–,< 50,< 50,CNc1cc(-c2nn(CCN3CCOCC3)c3ncccc23)nc2c(C(=O)N[C@H]3C[C@H]3F)cnn12 [I-456],–,–
–,0.2 to 1,–,< 50,< 50,CNc1cc(Nc2cccn([C@@H]3CCC[C@H]3OC)c2=O)nc2c(C(=O)N[C@@H]3C[C@@H]3F)cnn12 [I-486],–,–
–,0.2 to 1,–,< 50,< 50,CNc1cc(Nc2cccn(-c3ccnc(C)n3)c2=O)nc2c(C(N)=O)cnn12 [I-51],–,–
–,< 0.2,–,< 50,< 50,"CNc1cc(-c2cn(C(C)C)c3ncccc23)nc2c(C(=O)N[C@@H]3C[C@H]3O)cnn12 (stereo in doubt) [I-653, N-((1R,2R)-2-hydroxycyclopropyl)-5-(1-isopropyl-1H-pyrrolo[2,3-b]pyridin-3-yl)-7-(methylamino)pyrazolo[1,5-a]pyrimidine-3-carboxamide]",–,–
–,1 to 10,–,–,–,CNc1cc(Nc2cccc([C@H]3CCCOC3)n2)nc2c(C(=O)N[C@@H]3COC[C@@H]3O)cnn12 [I-691],A (percent inhibition at 10 μM lower than 50),A (percent inhibition at 10 μM lower than 50)
–,< 0.2,–,< 50,< 50,CNc1cc(Nc2cccc([C@H]3CCCCO3)n2)nc2c(C(=O)NCC3(CO)CC3)cnn12 [I-564],–,–
–,< 0.2,–,< 50,< 50,CNc1cc(Nc2cccn(C3CCN(CC(F)F)CC3)c2=O)nc2c(C(=O)NC3CC3)cnn12 [I-191],–,–
–,1 to 10,–,< 50,< 50,"CNc1cc(-c2cn(C(C)C)c3ncc(Cl)cc23)nc2c(C(=O)NC3CCC3)cnn12 [I-273, 5-(5-chloro-1-isopropyl-1H-pyrrolo[2,3-b]pyridin-3-yl)-N-cyclobutyl-7-(methylamino)pyrazolo[1,5-a]pyrimidine-3-carboamide]",–,–
–,< 0.2,–,< 50,< 50,"CNc1cc(Nc2cc(Cl)cn(C3CCCOC3)c2=O)nc2c(C(=O)N[C@H]3[C@@H]4COC[C@@H]43)cnn12 (stereo partly drawn) [I-741, N-((1R,5S,6r)-3-oxabicyclo[3.1.0]hexan-6-yl)-5-((5-chloro-2-oxo-1-(tetrahydro-2H-pyran-3-yl)-1,2-dihydropyridin-3-yl)amino)-7-(methylamino)pyrazolo[1,5-a]pyrimidine-3-carboxamide]",–,–
